Source: US11712443B2, “17α-monoesters and 17α,21-diesters of cortexolone for use in the treatment of tumors” (COSMO TECHNOLOGIES LTD., priority 2014, dated 2023)

Key:
[1] = test system: MCF7; test: In vitro proliferation / cytotoxic assay on breast cancer cells (cell titer glo); settings: human, 3 days
Procedure: For the cytotoxic assay: cells seeded in 96 well flat bottom culture plates in media containing charcoal stripped serum. After 24 hours test compounds were added to the cells. DMSO was used as the vehicle negative control and RU486 as the positive control. After 72 hours incubation cell were harvested, lysed and viability determined using the cell titer glow assay for viability.

[2] = biological target: T1, Glucocorticoid Receptor (Homo sapiens, UniProt P04150); test: GR transcriptional reporter assay, antagonist mode; assay type: cell-based; settings: inhibition of luminescence induced by Dexamethasone; compared to RU486; FIG. 7
T1 construct: endogenous in cells; host or cells: human kidney epithelial cells
T1 sequence (P04150 1-777): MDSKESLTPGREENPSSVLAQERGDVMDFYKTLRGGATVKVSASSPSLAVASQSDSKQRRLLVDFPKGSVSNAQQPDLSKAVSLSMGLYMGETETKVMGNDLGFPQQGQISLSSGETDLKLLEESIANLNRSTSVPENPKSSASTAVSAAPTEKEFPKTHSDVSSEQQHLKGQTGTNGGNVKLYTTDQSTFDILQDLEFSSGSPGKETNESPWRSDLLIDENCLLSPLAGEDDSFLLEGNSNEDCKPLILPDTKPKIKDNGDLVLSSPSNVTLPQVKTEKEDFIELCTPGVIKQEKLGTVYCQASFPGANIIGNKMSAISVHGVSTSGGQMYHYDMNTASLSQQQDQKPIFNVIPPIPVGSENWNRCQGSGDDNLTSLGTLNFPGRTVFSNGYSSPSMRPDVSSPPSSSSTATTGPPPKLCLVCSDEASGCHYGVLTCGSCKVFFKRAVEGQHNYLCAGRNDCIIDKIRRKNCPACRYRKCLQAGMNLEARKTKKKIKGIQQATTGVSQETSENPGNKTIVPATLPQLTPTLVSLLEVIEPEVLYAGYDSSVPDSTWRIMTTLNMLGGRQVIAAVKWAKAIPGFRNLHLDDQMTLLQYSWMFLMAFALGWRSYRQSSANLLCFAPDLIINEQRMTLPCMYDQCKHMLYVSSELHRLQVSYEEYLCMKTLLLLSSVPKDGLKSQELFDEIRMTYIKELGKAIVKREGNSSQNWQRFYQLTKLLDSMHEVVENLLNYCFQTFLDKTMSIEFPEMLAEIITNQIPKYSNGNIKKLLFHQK
Procedure: The androgen and glucocorticoid hormones elicit divergent and often opposing effects in cells, tissues, and animals. […] CB-03-10 GR antagonist and agonist activities were tested in an in vitro assay. Briefly, human kidney epithelial cells were transfected with DNA construct containing GR binding sites linked to luminescent based reporter molecule. After 24 hours, cells were treated under antagonist or agonist modes. After an additional 24 hours, luminescence which is proportional to GR agonist transcriptional activity was quantitated.
Antagonist Assay was based on inhibition of luminescence induced by Dexamethasone (Dex).
The antagonist activity of CB-03-10 was compared to a known GR antagonist, Mifepristone (also called RU486) as shown in FIG. 7.

[3] = test system: MiaPaca2 cells; test: Apoptosis induction, Annexin V / propidium iodide flow cytometry; assay type: cell-based; settings: 24 hours; control 11%; FIG. 9
Procedure: CB-03-10 was evaluated to determine if the mechanism of cytotoxicity on cancer cell lines was mediated by apoptosis and cell cycle arrest. Cancer cell lines were seeded in 6-well flat bottom plates. After 24 hours test compounds or DMSO vehicle (negative control) were added. After an additional 24 hours cells were scraped and stained with fluorescein conjugated Annexin V and propidium iodide and analyzed by flow cytometry.

[4] = test system: MiaPaca2 cells; test: Cell cycle arrest, propidium iodide staining; assay type: cell-based; settings: 24 hours; FIG. 10
Procedure: Apoptosis can occur at the G1/S or G2/M transition of the cell cycle. Cells were treated with CB-03-10 for 24 hours then fixed with paraformaldehyde and stained with propidium iodide. […] The lack of G1 block indicates no effect on p53. The S & G2/M blocks may indicate activity on cell cycle check point molecules. For S phase, a possible target is the cyclin dependent kinase 2 (CDK2). Gemzar and cisplatin are example drugs that act in S phase. For G2, a possible target is CDK1.

[5] = test system: MiaPaca2; settings: human, 3 days

CCCCC(=O)O[C@]1(C(=O)COC(=O)CC)CC[C@H]2[C@@H]3CCC4=CC(=O)CC[C@]4(C)[C@H]3CC[C@@]21C [CB-03-10, cortexolone 17α-valerate-21-propionate]
Therapeutic Index = IC50 resting PBMC/IC50 cancer cell [1]: 3 | Therapeutic Index = IC50 stimulated PBMC/IC50 cancer cell [1]: 3 | GR antagonist activity [2]: potent antagonist (10 times less than RU486) | cells in apoptosis (early and late apoptosis), total [3]: 28% | cell cycle arrest [4]: induces an S phase block at lower concentrations then a G2/M block at higher concentration | TI on Resting PBMC [5]: 3 | TI on Stimulated PBMC [5]: 3 | Therapeutic Index = IC50 resting PBMC/IC50 cancer cell [5]: 3 | Therapeutic Index = IC50 stimulated PBMC/IC50 cancer cell [5]: 3
